# B1: C1: 264-amino-acid protein (SEQ ID NO: 1) encoded by SEQ ID NO:2; tested by transforming cells with C1 gene expression vector (protein, listed as Homo sapiens)
# chain: MGGAQLELPSGARPGVCVRRSFRAHAGDQPRRPPGPIPVPGTMKQESAAPNTPPTSQSPTPSAQFPRNDGDPQALWIFGYGSLVWRPDFAYSDSRVGFVRGYSRRFWQGDTFHRGSDKMPGRVVTLLEDHEGCTWGVAYQVQGEQVSKALKYLNVREAVLGGYDTKEVTFYPQDAPDQPLKALAYVATPQNPGYLGPAPEEAIATQILACRGFSGHNLEYLLRLADFMQLCGPQAQDEHLAAIVDAVGTMLPCFCPTEQALALV
# Legend:
# [1] = system: GeneBank No. 170665; assay: Gene expression analysis (oligonucleotide microarray) in rat primary nerve cells under endoplasmic reticulum stress; assay type: cell-based; conditions: standardized with the median (=1)
# Method: Rat primary nerve cells prepared from TP-17 CD rats (Nippon Charles River) were suspended in B27-containing neurobasal medium (NB medium, GIBCO), then put at a density of 250,000 cells/well in a type I collagen-coated 24-well plate (SUMILON), and cultured for 3 days. (i) Tunicamycin (Tnc) was added at a final concentration of 100 nM to the cultured cells, (ii) thapsigargin (Thap) was added at a final concentration of 2 nM to the cultured cells, or (iii) after the medium was exchanged twice with glucose-free B27-containing DMEM medium, 2-deoxyglucose (2DG) was added at a concentration of 3 mM to the cultured cells. After 4, 8, and 24 hours, total RNA was extracted from the respective cells by using RNeasy Mini Kit (Qiagen) according to its instructions. As the control, the cells to which each medium was added in place of the above chemicals (Tnc, Thap and 2DG) (cells to which no chemical was added) were used. These were used as the material to conduct gene expression analysis using an oligonucleotide microarray (Rat Genome U34A, Affymetrix).
# The experimental method was in accordance with instructions of Affymetrix (Expression analysis technical manual). As a result of comparison of gene expression profiles of the cells stimulated with each chemical and the cells to which no chemical was added, the expression of GeneBank No. 170665 was promoted by endoplasmic reticulum stress stimulation [the above (i), (ii) and (iii)] (Table 1).
# [2] = system: GeneBank No. 170665; assay: Gene expression analysis (oligonucleotide microarray) in rat primary nerve cells stimulated with β-amyloid; assay type: cell-based; conditions: β-amyloid 25 nM, standardized with the median (=1)
# Method: For the purpose of examining whether the expression of GeneBank No. 170665 whose expression was promoted by endoplasmic reticulum stress was influenced by β-amyloid stimulation, gene expression analysis was conducted using the cells stimulated with β-amyloid in the same manner as in Example 1.
# Rat primary nerve cells prepared in the same manner as in Example 1 were suspended in N2-containing DMEM medium (GIBCO), then put at a density of 250,000 cells/well and cultured for 4 days. After culture, β-amyloid suspended at a final concentration of 25 nM in the above medium was added to the cells. After 4, 8, and 24 hours, total RNA was extracted from the cells and gene analysis was conducted in the same manner as in Example 1. As the control, the cells to which the above medium was added in place of β-amyloid were used. The expression of GeneBank No. 170665 was promoted in the cells stimulated with β-amyloid, as compared with the control (Table 2).
# [3] = system: IMR-32 cells; assay: Aβ40 and Aβ42 concentration in culture supernatant of transformed cells by ELISA; assay type: cell-based; conditions: IMR-32 cells transformed with C1 vs GFP control cells; 24 hours after medium exchange
# Method: The C1 gene expression vector described in Example 4 was transformed into IMR-32 cells by using Nucleofector (AMAXA). As the control, a GFP gene expression vector (Wako) was transformed into other IMR-32 cells. The respective transformed cells were put at a density of 1,000,000 cells/well in a type I collagen-coated 24-well plate (IWAKI) and cultured for 16 hours. After the medium was exchanged with a new one, the cells were cultured for additional 24 hours, and the concentrations of Aβ40 and Aβ42 in the culture supernatant were measured respectively by ELISA (Biochemistry 34, 10272-10278, 1995).
# [4] = system: SK-N-AS cells; assay: DNA cleavage accompanying tunicamycin-induced cell-death (CELL DEATH DETECTION ELISA PLUS) in transformed cells; assay type: cell-based, human; conditions: SK-N-AS cells transformed with the C1 gene vs pcDNA3.1 control cells; tunicamycin for 1 or 2 days
# Method: A plasmid comprising the nucleotide sequence represented by SEQ ID NO:2 was designated C1-pcDNA3.1/V5-His TOPO, and a transformant having the plasmid was designated Escherichia coli DH5α/C1-pcDNA3.1N5-His TOPO. This transformant was cultured in LB medium, and the vector was recovered by using QUAGEN plasmid midi kit (Qiagen). This C1 gene expression vector was transformed into SK-N-AS cells by using Nucleofector (AMAXA). As the control, pcDNA3.1 (Invitrogen) was transformed into SK-N-AS cells.
# The respective transformed cells were put at a density of 7500 cells/well in a type I collagen-coated 96-well plate (IWAKI) and then cultured overnight, and after tunicamycin was added at various concentrations, the cells were cultured for 1 or 2 days to induce cell-death. After culture, DNA cleavage accompanying cell-death was detected by using CELL DEATH DETECTION ELISA^PLUS kit (Roche). The experimental method was in accordance with instructions attached to the kit.
molecule,measurement,setting,value
"O=CC[C@@H](O)[C@H](O)[C@H](O)CO [2DG, 2-deoxyglucose]",Gene expression level,"[1]; 2DG 3 mM in glucose-free DMEM medium, after 4 hours",16.71
same,Gene expression level,"[1]; 2DG 3 mM in glucose-free DMEM medium, after 8 hours",15.11
same,Gene expression level,"[1]; 2DG 3 mM in glucose-free DMEM medium, after 24 hours",14.55
C/C=C(/C)C(=O)O[C@H]1C(C)=C2[C@H]([C@@H]1OC(=O)CCCCCCC)[C@@](C)(OC(C)=O)C[C@H](OC(=O)CCC)[C@@]1(O)[C@H]2OC(=O)[C@@]1(C)O [thapsigargin],Gene expression level,"[1]; thapsigargin 2 nM, after 4 hours",8.77
same,Gene expression level,"[1]; thapsigargin 2 nM, after 8 hours",9.65
same,Gene expression level,"[1]; thapsigargin 2 nM, after 24 hours",7.56
tunicamycin,Gene expression level,"[1]; tunicamycin 100 nM, after 4 hours",3.00
same,Gene expression level,"[1]; tunicamycin 100 nM, after 8 hours",2.81
same,Gene expression level,"[1]; tunicamycin 100 nM, after 24 hours",3.63
β-amyloid,Gene expression level,[2]; after 4 hours,3.44
same,Gene expression level,[2]; after 8 hours,6.99
same,Gene expression level,[2]; after 24 hours,4.40
B1,Aβ40 concentration in culture supernatant,[3],reduced
same,Aβ42 concentration in culture supernatant,[3],reduced
same,DNA cleavage (cell-death),[4],promoted
